From PubChem BioAssay AID248 (DTP/NCI, 2004)
Values joined by “and” are separate entries in the source; they are usually repeats but may differ in a detail not shown here. Equal values may be shown once. Toxic doses and inconclusive results are not listed. No stated cut-off is given here; in the data, active means T/C of 150% or more; inactive means T/C below 125%.

Test system: L1210 leukemia ip in BDF1 mice, survival T/C
Assay: NCI In Vivo Anticancer Drug Screen. Data for tumor model L1210 Leukemia (intraperitoneal) in B6D2F1 (BDF1) mice
Conditions: endpoint: mean survival time, higher = longer survival
Summary of the method: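 Ratio derived from survival: compound-dosed mice over vehicle-dosed mice, all bearing a transplantable tumor.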

[1] = dose: 100.0 mg/kg/injection, schedule: Q04DX002 (ip), vehicle: Klucel (hydroxypropylcellulose) (HPC)
[2] = dose: 100.0 mg/kg/injection, schedule: Q01DX009 (ip), vehicle: Klucel (hydroxypropylcellulose) (HPC)
[3] = dose: 100.0 mg/kg/injection, schedule: Q04DX003 (ip), vehicle: Klucel (hydroxypropylcellulose) (HPC)
[4] = dose: 200.0 mg/kg/injection, schedule: Q04DX003 (ip), vehicle: Klucel (hydroxypropylcellulose) (HPC)
[5] = dose: 400.0 mg/kg/injection, schedule: Q04DX003 (ip), vehicle: Klucel (hydroxypropylcellulose) (HPC)
[6] = dose: 100.0 mg/kg/injection, schedule: Q04DX003 (ip), vehicle: saline
[7] = dose: 200.0 mg/kg/injection, schedule: Q04DX003 (ip), vehicle: saline
[8] = dose: 400.0 mg/kg/injection, schedule: Q01DX001 (ip), vehicle: saline
[9] = dose: 100.0 mg/kg/injection, schedule: Q04DX003 (ip), vehicle: saline with Tween-80
[10] = dose: 200.0 mg/kg/injection, schedule: Q04DX003 (ip), vehicle: saline with Tween-80
[11] = dose: 200.0 mg/kg/injection, schedule: Q04DX002 (ip), vehicle: Klucel (hydroxypropylcellulose) (HPC)
[12] = dose: 400.0 mg/kg/injection, schedule: Q04DX002 (ip), vehicle: Klucel (hydroxypropylcellulose) (HPC)
[13] = dose: 50.0 mg/kg/injection, schedule: Q01DX001 (ip), vehicle: carboxymethylcellulose (CMC)
[14] = dose: 100.0 mg/kg/injection, schedule: Q01DX001 (ip), vehicle: carboxymethylcellulose (CMC)
[15] = dose: 100.0 mg/kg/injection, schedule: Q04DX002 (ip), vehicle: saline with Tween-80
[16] = dose: 200.0 mg/kg/injection, schedule: Q01DX001 (ip), vehicle: carboxymethylcellulose (CMC)
[17] = dose: 400.0 mg/kg/injection, schedule: Q01DX001 (ip), vehicle: carboxymethylcellulose (CMC)
[18] = dose: 100.0 mg/kg/injection, schedule: Q04DX002 (ip), vehicle: saline
[19] = dose: 100.0 mg/kg/injection, schedule: Q01DX001 (ip), vehicle: saline
[20] = dose: 200.0 mg/kg/injection, schedule: Q01DX001 (ip), vehicle: saline
[21] = dose: 50.0 mg/kg/injection, schedule: Q01DX001 (ip), vehicle: saline

Measured: T/C

NC(N)=N/N=C/c1cc(Cl)ccc1O
inactive: dose: 12.5 mg/kg/injection, schedule: Q04DX002 (ip), vehicle: Klucel (hydroxypropylcellulose) (HPC) 93 % of control | dose: 25.0 mg/kg/injection, schedule: Q04DX002 (ip), vehicle: Klucel (hydroxypropylcellulose) (HPC) 93 % of control and 110 % of control | [1] 106 % of control

CC(=O)CC(=O)Nc1cccc([N+](=O)[O-])c1
inactive: [2] 98 % of control | [3] 97 % of control | [4] 91 % of control | [5] 93 % of control

CCOC(=O)CNC(=O)C(OC(C)=O)C(OC(C)=O)C(=O)O (centres undefined)
inactive: dose: 100.0 mg/kg/injection, schedule: Q04DX003 (ip), vehicle: water 97 % of control | dose: 200.0 mg/kg/injection, schedule: Q04DX003 (ip), vehicle: water 92 % of control | dose: 400.0 mg/kg/injection, schedule: Q04DX003 (ip), vehicle: water 92 % of control

Cc1ccc(NC(=O)C2C3CC4OC(=O)C2C4C3)cc1 (centres undefined)
inactive: [6] 102 % of control | [7] 108 % of control | dose: 400.0 mg/kg/injection, schedule: Q04DX003 (ip), vehicle: saline 111 % of control

O=[N+]([O-])c1cccc(C2=NNC(c3cccc([N+](=O)[O-])c3)=NN2)c1
inactive: dose: 175.0 mg/kg/injection, schedule: Q01DX001 (ip), vehicle: saline 87 % of control | dose: 265.0 mg/kg/injection, schedule: Q01DX001 (ip), vehicle: saline 92 % of control | [8] 89 % of control | dose: 600.0 mg/kg/injection, schedule: Q01DX001 (ip), vehicle: saline 89 % of control

COc1ccc(-n2c(C)csc2=S)cc1
inactive: [9] 94 % of control | [10] 97 % of control

COC(=O)NS(=O)(=O)C1=Cc2cccc3cccc1c23
inactive: [1] 103 % of control | [11] 100 % of control | [12] 113 % of control

CCCCCCCCCCCC(=O)CCC
inactive: dose: 100.0 mg/kg/injection, schedule: Q01DX009 (ip), vehicle: other 87 % of control | dose: 100.0 mg/kg/injection, schedule: Q04DX003 (ip), vehicle: other 103 % of control | dose: 200.0 mg/kg/injection, schedule: Q01DX009 (ip), vehicle: other 95 % of control | dose: 200.0 mg/kg/injection, schedule: Q04DX003 (ip), vehicle: other 105 % of control | dose: 400.0 mg/kg/injection, schedule: Q01DX009 (ip), vehicle: other 89 % of control | dose: 400.0 mg/kg/injection, schedule: Q04DX003 (ip), vehicle: other 103 % of control

C=C1CC(C)(c2ccc(CCCC(=O)OCC)cc2)OC1=O (centres undefined)
inactive: dose: 50.0 mg/kg/injection, schedule: Q01DX009 (ip), vehicle: saline with Tween-80 102 % of control | dose: 100.0 mg/kg/injection, schedule: Q01DX009 (ip), vehicle: saline with Tween-80 102 % of control | [9] 103 % of control | dose: 200.0 mg/kg/injection, schedule: Q01DX009 (ip), vehicle: saline with Tween-80 88 % of control | [10] 97 % of control

NC(=S)N/N=C/c1ccccc1O
inactive: [13] 96 % of control | [14] 104 % of control | [15] 90 % of control | [16] 91 % of control | dose: 200.0 mg/kg/injection, schedule: Q04DX002 (ip), vehicle: saline with Tween-80 104 % of control | [17] 91 % of control | dose: 400.0 mg/kg/injection, schedule: Q04DX002 (ip), vehicle: saline with Tween-80 93 % of control

Clc1ccc2c(c1)ncn1nnnc21
inactive: dose: 50.0 mg/kg/injection, schedule: Q04DX003 (ip), vehicle: saline 95 % of control | [6] 104 % of control | [7] 93 % of control

N#C/C(=C/c1ccc(O)cc1)C(=O)O
inactive: [3] 96 % of control | [4] 94 % of control | [5] 94 % of control

CCCCCCCCC(=O)N1CCN(C)CC1
inactive: [18] 103 % of control

N=C(N)SCc1ccc(Cl)cc1
inactive: dose: 25.0 mg/kg/injection, schedule: Q04DX002 (ip), vehicle: saline 98 % of control | dose: 50.0 mg/kg/injection, schedule: Q04DX002 (ip), vehicle: saline 94 % of control | [18] 101 % of control

C[N+](C)(C)Cc1c(CC(O)(c2ccccc2)c2ccccc2)ccc2ccccc12
inactive: [13] 102 % of control | [14] 94 % of control

COc1ccc(C2NCCCC2c2ccccc2)cc1 (centres undefined)
inactive: [14] 102 % of control | [16] 94 % of control | [17] 110 % of control

CCC1c2ccc3cc(OC)ccc3c2C(=O)C1CC(=O)O (centres undefined)
inactive: [19] 93 % of control | [20] 107 % of control

CN(C)Cc1ccccc1COC(=O)c1ccc([N+](=O)[O-])cc1
inactive: dose: 75.0 mg/kg/injection, schedule: Q04DX002 (ip), vehicle: Klucel (hydroxypropylcellulose) (HPC) 97 % of control | dose: 150.0 mg/kg/injection, schedule: Q04DX002 (ip), vehicle: Klucel (hydroxypropylcellulose) (HPC) 105 % of control | dose: 300.0 mg/kg/injection, schedule: Q04DX002 (ip), vehicle: Klucel (hydroxypropylcellulose) (HPC) 97 % of control

CCCCNC(=O)c1cccc2c1-c1ccccc1C2=O
inactive: dose: 100.0 mg/kg/injection, schedule: Q01DX001 (ip), vehicle: other 88 % of control | dose: 200.0 mg/kg/injection, schedule: Q01DX001 (ip), vehicle: other 88 % of control | dose: 400.0 mg/kg/injection, schedule: Q01DX001 (ip), vehicle: other 96 % of control

O=C(O)c1ccc(Br)cc1F
inactive: [14] 89 % of control | dose: 100.0 mg/kg/injection, schedule: Q01DX009 (ip), vehicle: carboxymethylcellulose (CMC) 109 % of control and 92 % of control | [1] 97 % of control | dose: 100.0 mg/kg/injection, schedule: Q04DX002 (ip), vehicle: carboxymethylcellulose (CMC) 104 % of control and 107 % of control | dose: 100.0 mg/kg/injection, schedule: Q04DX003 (ip), vehicle: carboxymethylcellulose (CMC) 97 % of control | [16] 99 % of control | dose: 200.0 mg/kg/injection, schedule: Q01DX009 (ip), vehicle: carboxymethylcellulose (CMC) 116 % of control and 89 % of control | [11] 97 % of control | dose: 200.0 mg/kg/injection, schedule: Q04DX002 (ip), vehicle: carboxymethylcellulose (CMC) 102 % of control and 91 % of control | dose: 200.0 mg/kg/injection, schedule: Q04DX003 (ip), vehicle: carboxymethylcellulose (CMC) 99 % of control | [17] 89 % of control | dose: 400.0 mg/kg/injection, schedule: Q01DX009 (ip), vehicle: carboxymethylcellulose (CMC) 95 % of control and 92 % of control | [12] 97 % of control | dose: 400.0 mg/kg/injection, schedule: Q04DX002 (ip), vehicle: carboxymethylcellulose (CMC) 99 % of control and 100 % of control | dose: 400.0 mg/kg/injection, schedule: Q04DX003 (ip), vehicle: carboxymethylcellulose (CMC) 105 % of control

O=C(O)C1(NO)CCCC1
inactive: [21] 102 % of control | [19] 121 % of control | [8] 110 % of control

CC(C)(C)c1cc(/C=N/NC(=O)COCC(=O)N/N=C/c2cc(C(C)(C)C)c(O)c(C(C)(C)C)c2)cc(C(C)(C)C)c1O
inactive: [2] 95 % of control | dose: 200.0 mg/kg/injection, schedule: Q01DX009 (ip), vehicle: Klucel (hydroxypropylcellulose) (HPC) 103 % of control | dose: 400.0 mg/kg/injection, schedule: Q01DX009 (ip), vehicle: Klucel (hydroxypropylcellulose) (HPC) 92 % of control

CC(C)CC(NC(=O)OCc1ccccc1)C(=O)NCCCCCCNCCCCCCNC(=O)C(CC(C)C)NC(=O)OCc1ccccc1 (centres undefined)
inactive: [21] 95 % of control | [20] 98 % of control

COc1cc2c(cc1OC)NCc1cccn1C2
inactive: dose: 25.0 mg/kg/injection, schedule: Q04DX002 (ip), vehicle: saline with Tween-80 101 % of control | dose: 50.0 mg/kg/injection, schedule: Q04DX002 (ip), vehicle: saline with Tween-80 97 % of control | [15] 105 % of control
